# Test results as given in ChEMBL document CHEMBL5537170, “Design, Synthesis, and Anti-Osteoporotic Characterization of Arginine N-Glycosylated Teriparatide Analogs via the Silver-catalyzed Solid-Phase Glycosylation Strategy” (J Med Chem, 2024).
# *1 amine or outer side, *2 acyl side, *3 side chain or, on linkers, in order; H or OH if unused. Where a SMILES comes first, the peptide text is derived from it. [ ]: non-standard residue; d: D form. X6 = C[C@@H]1O[C@@H](NC(=N)NCCC[C@H](N[*:1])C(=O)[*:2])[C@H](O)[C@H](O)[C@H]1O
# Assay: Cytotoxicity against C57BL/6 mouse Pre-Osteoblast cells assessed as cell death upto 5 uM incubated for 4 days by CCK-8 assay
# Type: toxicity, cell-based
# Settings: 96 h, time 4 day
row,SMILES,Activity
1,CC[C@H](C)[C@H](NC(=O)[C@H](CCC(=O)O)NC(=O)[C@H](CO)NC(=O)[C@@H](NC(=O)[C@H](CO)NC(C)=O)C(C)C)C(=O)N[C@@H](CCC(N)=O)C(=O)N[C@@H](CC(C)C)C(=O)N[C@@H](CCSC)C(=O)N[C@@H](Cc1cnc[nH]1)C(=O)N[C@@H](CC(N)=O)C(=O)N[C@@H](CC(C)C)C(=O)NCC(=O)N[C@@H](CCCCN)C(=O)N[C@@H](Cc1cnc[nH]1)C(=O)N[C@@H](CC(C)C)C(=O)N[C@@H](CC(N)=O)C(=O)N[C@@H](CO)C(=O)N[C@@H](CCSC)C(=O)N[C@@H](CCC(=O)O)C(=O)N[C@@H](CCCNC(=N)N)C(=O)N[C@H](C(=O)N[C@@H](CCC(=O)O)C(=O)N[C@@H](Cc1c[nH]c2ccccc12)C(=O)N[C@@H](CC(C)C)C(=O)N[C@@H](CCCNC(=N)N[C@@H]1O[C@H](CO)[C@@H](O)[C@H]1O)C(=O)N[C@@H](CCCCN)C(=O)N[C@@H](CCCCN)C(=O)N[C@@H](CC(C)C)C(=O)N[C@@H](CCC(N)=O)C(=O)N[C@@H](CC(=O)O)C(=O)N[C@H](C(=O)N[C@@H](Cc1cnc[nH]1)C(=O)N[C@@H](CC(N)=O)C(=O)N[C@@H](Cc1ccccc1)C(N)=O)C(C)C)C(C)C,Non-Toxic
2,CC[C@H](C)[C@H](NC(=O)[C@H](CCC(=O)O)NC(=O)[C@H](CO)NC(=O)[C@@H](NC(=O)[C@H](CO)NC(C)=O)C(C)C)C(=O)N[C@@H](CCC(N)=O)C(=O)N[C@@H](CC(C)C)C(=O)N[C@@H](CCSC)C(=O)N[C@@H](Cc1cnc[nH]1)C(=O)N[C@@H](CC(N)=O)C(=O)N[C@@H](CC(C)C)C(=O)NCC(=O)N[C@@H](CCCCN)C(=O)N[C@@H](Cc1cnc[nH]1)C(=O)N[C@@H](CC(C)C)C(=O)N[C@@H](CC(N)=O)C(=O)N[C@@H](CO)C(=O)N[C@@H](CCSC)C(=O)N[C@@H](CCC(=O)O)C(=O)N[C@@H](CCCNC(=N)N)C(=O)N[C@H](C(=O)N[C@@H](CCC(=O)O)C(=O)N[C@@H](Cc1c[nH]c2ccccc12)C(=O)N[C@@H](CC(C)C)C(=O)N[C@@H](CCCNC(=N)N[C@H]1O[C@H](CO)[C@@H](O)[C@H](O)[C@@H]1O)C(=O)N[C@@H](CCCCN)C(=O)N[C@@H](CCCCN)C(=O)N[C@@H](CC(C)C)C(=O)N[C@@H](CCC(N)=O)C(=O)N[C@@H](CC(=O)O)C(=O)N[C@H](C(=O)N[C@@H](Cc1cnc[nH]1)C(=O)N[C@@H](CC(N)=O)C(=O)N[C@@H](Cc1ccccc1)C(N)=O)C(C)C)C(C)C,Non-Toxic
3,CC[C@H](C)[C@H](NC(=O)[C@H](CCC(=O)O)NC(=O)[C@H](CO)NC(=O)[C@@H](NC(=O)[C@H](CO)NC(C)=O)C(C)C)C(=O)N[C@@H](CCC(N)=O)C(=O)N[C@@H](CC(C)C)C(=O)N[C@@H](CCSC)C(=O)N[C@@H](Cc1cnc[nH]1)C(=O)N[C@@H](CC(N)=O)C(=O)N[C@@H](CC(C)C)C(=O)NCC(=O)N[C@@H](CCCCN)C(=O)N[C@@H](Cc1cnc[nH]1)C(=O)N[C@@H](CC(C)C)C(=O)N[C@@H](CC(N)=O)C(=O)N[C@@H](CO)C(=O)N[C@@H](CCSC)C(=O)N[C@@H](CCC(=O)O)C(=O)N[C@@H](CCCNC(=N)N[C@@H]1O[C@@H](C)[C@H](O)[C@@H](O)[C@H]1O)C(=O)N[C@H](C(=O)N[C@@H](CCC(=O)O)C(=O)N[C@@H](Cc1c[nH]c2ccccc12)C(=O)N[C@@H](CC(C)C)C(=O)N[C@@H](CCCNC(=N)N[C@@H]1O[C@@H](C)[C@H](O)[C@@H](O)[C@H]1O)C(=O)N[C@@H](CCCCN)C(=O)N[C@@H](CCCCN)C(=O)N[C@@H](CC(C)C)C(=O)N[C@@H](CCC(N)=O)C(=O)N[C@@H](CC(=O)O)C(=O)N[C@H](C(=O)N[C@@H](Cc1cnc[nH]1)C(=O)N[C@@H](CC(N)=O)C(=O)N[C@@H](Cc1ccccc1)C(N)=O)C(C)C)C(C)C (Ac-SVSEIQLMHNLGKHLNSME[X6]VEWL[X6]KKLQDVHNF-NH2),Non-Toxic
